Results: PMC9030254, “Target Hopping from Protein Kinases to PXR: Identification of Small-Molecule Protein Kinase Inhibitors as Selective Modulators of Pregnane X Receptor from TüKIC Library” (Cells, 2022)

Assays:
Assay in all cases: Kinase profiling
Format in all cases: biochemical
DMPK = biological target: T1, DMPK (Homo sapiens, UniProt Q09013)
T1 construct: purchased ProQinase (Freiburg, Germany)
T1 sequence (Q09013 1-629): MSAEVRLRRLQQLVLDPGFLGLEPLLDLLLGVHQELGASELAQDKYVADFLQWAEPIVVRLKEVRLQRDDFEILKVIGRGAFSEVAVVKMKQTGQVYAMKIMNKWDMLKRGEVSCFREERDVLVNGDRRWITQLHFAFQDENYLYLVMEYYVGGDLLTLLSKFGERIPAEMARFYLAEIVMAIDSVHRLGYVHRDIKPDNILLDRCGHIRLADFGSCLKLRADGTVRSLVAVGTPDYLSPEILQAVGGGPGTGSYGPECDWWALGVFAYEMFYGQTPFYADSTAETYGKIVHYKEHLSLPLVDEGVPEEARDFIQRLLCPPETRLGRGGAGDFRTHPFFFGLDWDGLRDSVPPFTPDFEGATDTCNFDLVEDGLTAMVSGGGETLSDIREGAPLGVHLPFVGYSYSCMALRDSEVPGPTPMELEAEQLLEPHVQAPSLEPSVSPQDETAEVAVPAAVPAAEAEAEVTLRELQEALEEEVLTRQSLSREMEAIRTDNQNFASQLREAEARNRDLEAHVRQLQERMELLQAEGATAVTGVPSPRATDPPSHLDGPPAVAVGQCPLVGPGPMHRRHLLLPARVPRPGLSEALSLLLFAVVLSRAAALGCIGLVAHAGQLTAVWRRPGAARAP
Method: (§1) The analysis was performed by ProQinase (Freiburg, Germany).

S6Kbeta = biological target: T2, S6Kbeta (Homo sapiens, UniProt Q9UBS0)
T2 construct: purchased ProQinase (Freiburg, Germany)
T2 sequence (Q9UBS0 whole entry): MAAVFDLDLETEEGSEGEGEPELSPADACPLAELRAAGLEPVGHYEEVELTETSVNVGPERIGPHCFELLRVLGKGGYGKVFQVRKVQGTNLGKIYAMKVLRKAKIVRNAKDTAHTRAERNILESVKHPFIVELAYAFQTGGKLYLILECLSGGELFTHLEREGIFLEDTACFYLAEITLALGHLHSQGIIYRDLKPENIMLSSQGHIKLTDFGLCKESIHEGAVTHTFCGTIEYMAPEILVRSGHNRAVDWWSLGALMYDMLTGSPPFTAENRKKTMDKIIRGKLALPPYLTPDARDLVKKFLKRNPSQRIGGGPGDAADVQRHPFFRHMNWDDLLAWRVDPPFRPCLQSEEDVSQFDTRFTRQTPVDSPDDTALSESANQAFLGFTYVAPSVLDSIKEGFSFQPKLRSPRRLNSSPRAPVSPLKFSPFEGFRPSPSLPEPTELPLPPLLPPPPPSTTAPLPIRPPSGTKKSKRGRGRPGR
Method: as §1

CDK4/CycD2 = biological target: T3, CDK4/CycD2 (Homo sapiens, UniProt P11802)
T3 construct: purchased ProQinase (Freiburg, Germany)
T3 sequence (P11802 whole entry): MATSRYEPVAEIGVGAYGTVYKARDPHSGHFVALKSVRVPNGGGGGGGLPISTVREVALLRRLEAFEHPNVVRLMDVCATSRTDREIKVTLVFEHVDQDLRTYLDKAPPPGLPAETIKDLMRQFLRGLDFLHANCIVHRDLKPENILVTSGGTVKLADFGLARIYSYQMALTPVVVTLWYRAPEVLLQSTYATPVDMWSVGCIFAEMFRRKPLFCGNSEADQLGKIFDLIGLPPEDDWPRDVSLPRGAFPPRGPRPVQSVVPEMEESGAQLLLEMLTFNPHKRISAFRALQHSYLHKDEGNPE
T3 sequence (P30279 whole entry partner): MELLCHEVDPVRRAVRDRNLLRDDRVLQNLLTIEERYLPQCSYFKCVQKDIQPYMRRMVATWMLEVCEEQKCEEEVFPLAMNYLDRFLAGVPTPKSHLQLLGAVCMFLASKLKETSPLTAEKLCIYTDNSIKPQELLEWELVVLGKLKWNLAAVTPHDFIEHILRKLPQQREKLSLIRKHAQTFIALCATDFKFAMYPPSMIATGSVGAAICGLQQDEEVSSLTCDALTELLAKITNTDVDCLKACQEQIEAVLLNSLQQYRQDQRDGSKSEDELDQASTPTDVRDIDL
Method: as §1

PLK3 = biological target: T4, PLK3 (Homo sapiens, UniProt Q9H4B4)
T4 construct: purchased ProQinase (Freiburg, Germany)
T4 sequence (Q9H4B4 whole entry): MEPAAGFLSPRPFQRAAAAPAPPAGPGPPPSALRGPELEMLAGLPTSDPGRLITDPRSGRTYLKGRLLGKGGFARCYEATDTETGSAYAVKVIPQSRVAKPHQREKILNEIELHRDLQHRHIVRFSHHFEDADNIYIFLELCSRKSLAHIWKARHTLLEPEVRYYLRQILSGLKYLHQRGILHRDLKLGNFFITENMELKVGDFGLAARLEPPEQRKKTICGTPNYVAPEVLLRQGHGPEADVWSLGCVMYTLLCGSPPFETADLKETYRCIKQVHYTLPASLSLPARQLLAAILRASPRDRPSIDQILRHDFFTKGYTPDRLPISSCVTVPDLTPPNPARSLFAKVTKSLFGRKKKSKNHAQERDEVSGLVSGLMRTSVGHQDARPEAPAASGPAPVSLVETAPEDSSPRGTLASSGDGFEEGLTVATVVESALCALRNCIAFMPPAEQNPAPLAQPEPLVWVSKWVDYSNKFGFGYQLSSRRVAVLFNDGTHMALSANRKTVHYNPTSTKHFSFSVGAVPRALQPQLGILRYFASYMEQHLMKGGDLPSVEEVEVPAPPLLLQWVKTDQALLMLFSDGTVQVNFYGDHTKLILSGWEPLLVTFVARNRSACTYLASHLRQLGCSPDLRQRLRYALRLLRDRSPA
Method: as §1

SGK1 = biological target: T5, SGK1 (Homo sapiens, UniProt O00141)
T5 construct: purchased ProQinase (Freiburg, Germany)
T5 sequence (O00141 1-431): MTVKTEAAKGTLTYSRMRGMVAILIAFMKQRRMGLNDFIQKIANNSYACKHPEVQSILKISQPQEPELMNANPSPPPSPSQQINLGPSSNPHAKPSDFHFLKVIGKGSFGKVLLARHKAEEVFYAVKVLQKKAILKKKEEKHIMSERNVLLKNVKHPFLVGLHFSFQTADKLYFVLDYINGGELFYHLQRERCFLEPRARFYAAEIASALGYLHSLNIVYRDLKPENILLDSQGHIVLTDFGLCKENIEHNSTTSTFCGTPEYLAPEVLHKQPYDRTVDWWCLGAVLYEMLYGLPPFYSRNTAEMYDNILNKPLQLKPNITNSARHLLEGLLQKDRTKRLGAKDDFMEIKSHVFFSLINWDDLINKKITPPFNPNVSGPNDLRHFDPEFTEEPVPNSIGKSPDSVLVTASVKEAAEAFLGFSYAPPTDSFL
Method: as §1

MKK4 = biological target: T6, MKK4 (Homo sapiens, UniProt P45985)
T6 construct: purchased ProQinase (Freiburg, Germany)
T6 sequence (P45985 1-399): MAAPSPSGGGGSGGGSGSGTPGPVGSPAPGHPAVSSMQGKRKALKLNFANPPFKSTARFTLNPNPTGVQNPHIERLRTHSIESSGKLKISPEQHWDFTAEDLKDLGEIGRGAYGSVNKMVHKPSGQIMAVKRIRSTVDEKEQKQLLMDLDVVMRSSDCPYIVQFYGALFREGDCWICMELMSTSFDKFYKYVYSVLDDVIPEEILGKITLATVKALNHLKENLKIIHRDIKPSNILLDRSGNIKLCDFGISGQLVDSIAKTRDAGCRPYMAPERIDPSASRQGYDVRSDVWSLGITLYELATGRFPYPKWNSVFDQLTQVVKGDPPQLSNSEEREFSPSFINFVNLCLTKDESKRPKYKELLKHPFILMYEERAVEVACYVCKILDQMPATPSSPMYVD
Method: as §1

CLK1 = biological target: T7, CLK1 (Homo sapiens, UniProt P49759)
T7 construct: purchased ProQinase (Freiburg, Germany)
Method: as §1

FAK = biological target: T8, FAK (Homo sapiens, UniProt Q05397)
T8 construct: purchased ProQinase (Freiburg, Germany)
T8 sequence (Q05397 whole entry): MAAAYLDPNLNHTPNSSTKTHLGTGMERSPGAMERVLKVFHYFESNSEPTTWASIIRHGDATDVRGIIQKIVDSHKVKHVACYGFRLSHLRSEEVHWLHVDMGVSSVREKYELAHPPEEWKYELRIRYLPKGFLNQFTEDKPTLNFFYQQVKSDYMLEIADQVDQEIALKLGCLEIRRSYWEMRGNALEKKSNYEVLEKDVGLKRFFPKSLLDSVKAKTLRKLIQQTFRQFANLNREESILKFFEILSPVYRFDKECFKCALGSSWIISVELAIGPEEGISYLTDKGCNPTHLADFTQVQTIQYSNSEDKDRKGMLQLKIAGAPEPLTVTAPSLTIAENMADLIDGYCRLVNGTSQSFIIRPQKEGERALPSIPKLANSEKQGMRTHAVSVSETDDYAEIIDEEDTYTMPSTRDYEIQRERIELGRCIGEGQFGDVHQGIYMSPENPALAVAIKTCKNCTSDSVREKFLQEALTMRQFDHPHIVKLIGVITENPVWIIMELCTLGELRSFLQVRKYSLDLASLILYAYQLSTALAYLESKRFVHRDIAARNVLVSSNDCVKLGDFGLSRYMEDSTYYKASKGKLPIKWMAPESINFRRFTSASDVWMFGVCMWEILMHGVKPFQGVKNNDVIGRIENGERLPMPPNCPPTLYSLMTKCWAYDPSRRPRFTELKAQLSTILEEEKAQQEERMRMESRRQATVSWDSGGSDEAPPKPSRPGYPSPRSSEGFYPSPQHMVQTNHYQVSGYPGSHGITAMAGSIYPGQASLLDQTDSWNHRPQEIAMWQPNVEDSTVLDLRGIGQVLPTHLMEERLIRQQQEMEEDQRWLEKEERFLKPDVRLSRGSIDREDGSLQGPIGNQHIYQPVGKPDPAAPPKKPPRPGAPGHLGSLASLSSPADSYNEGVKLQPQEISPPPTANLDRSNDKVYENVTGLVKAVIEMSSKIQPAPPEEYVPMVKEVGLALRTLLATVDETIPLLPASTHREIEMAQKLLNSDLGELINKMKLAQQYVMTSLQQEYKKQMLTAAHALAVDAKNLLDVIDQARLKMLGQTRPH
Method: as §1

AMPKalpha1 = biological target: T9, AMPKalpha1 (Homo sapiens, UniProt Q13131)
T9 construct: purchased ProQinase (Freiburg, Germany)
T9 sequence (Q13131 10-559 limits assumed): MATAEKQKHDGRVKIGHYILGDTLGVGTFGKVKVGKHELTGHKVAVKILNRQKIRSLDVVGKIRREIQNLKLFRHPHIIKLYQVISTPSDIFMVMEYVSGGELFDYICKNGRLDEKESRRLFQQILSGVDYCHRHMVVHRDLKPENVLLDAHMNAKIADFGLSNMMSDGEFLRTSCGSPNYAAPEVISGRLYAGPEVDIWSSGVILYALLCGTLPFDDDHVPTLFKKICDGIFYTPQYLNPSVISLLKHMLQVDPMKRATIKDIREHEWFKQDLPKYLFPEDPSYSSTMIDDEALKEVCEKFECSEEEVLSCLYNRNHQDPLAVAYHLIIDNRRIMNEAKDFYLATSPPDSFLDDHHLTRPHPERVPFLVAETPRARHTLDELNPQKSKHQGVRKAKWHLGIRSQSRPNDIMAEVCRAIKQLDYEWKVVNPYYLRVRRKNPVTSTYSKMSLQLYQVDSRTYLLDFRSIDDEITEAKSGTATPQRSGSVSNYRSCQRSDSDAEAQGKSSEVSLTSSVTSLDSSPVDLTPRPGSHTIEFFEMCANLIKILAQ
Method: as §1

CLK3 = biological target: T10, CLK3 (Homo sapiens, UniProt P49761)
T10 construct: purchased ProQinase (Freiburg, Germany)
T10 sequence (P49761 whole entry): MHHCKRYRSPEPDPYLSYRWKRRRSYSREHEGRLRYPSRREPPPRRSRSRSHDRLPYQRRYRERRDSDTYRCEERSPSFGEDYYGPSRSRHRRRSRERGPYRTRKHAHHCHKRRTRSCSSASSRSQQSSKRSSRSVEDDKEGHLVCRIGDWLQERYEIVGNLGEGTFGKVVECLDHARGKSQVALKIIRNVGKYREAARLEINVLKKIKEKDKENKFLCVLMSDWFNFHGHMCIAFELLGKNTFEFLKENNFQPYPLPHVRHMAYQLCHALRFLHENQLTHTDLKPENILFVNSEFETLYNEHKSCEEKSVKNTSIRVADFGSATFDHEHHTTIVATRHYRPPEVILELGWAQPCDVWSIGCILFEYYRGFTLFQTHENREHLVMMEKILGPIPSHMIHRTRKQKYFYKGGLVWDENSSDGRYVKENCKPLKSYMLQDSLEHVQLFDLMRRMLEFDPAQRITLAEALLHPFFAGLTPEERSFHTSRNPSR
Method: as §1

p38alpha = biological target: T11, p38alpha (Homo sapiens, UniProt Q16539)
T11 construct: purchased ProQinase (Freiburg, Germany)
T11 sequence (Q16539 whole entry): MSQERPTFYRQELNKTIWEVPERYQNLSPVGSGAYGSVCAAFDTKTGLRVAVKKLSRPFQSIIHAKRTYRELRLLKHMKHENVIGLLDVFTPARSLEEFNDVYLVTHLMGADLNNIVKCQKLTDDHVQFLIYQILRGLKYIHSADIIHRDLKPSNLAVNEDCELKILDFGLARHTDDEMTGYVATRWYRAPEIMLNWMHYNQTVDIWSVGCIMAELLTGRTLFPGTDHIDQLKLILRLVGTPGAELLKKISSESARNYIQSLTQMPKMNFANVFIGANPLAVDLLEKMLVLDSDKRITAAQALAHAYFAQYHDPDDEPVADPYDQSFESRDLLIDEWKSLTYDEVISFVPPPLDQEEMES
Method: as §1

FER = biological target: T12, FER (Homo sapiens, UniProt P16591)
T12 construct: purchased ProQinase (Freiburg, Germany)
T12 sequence (P16591 whole entry): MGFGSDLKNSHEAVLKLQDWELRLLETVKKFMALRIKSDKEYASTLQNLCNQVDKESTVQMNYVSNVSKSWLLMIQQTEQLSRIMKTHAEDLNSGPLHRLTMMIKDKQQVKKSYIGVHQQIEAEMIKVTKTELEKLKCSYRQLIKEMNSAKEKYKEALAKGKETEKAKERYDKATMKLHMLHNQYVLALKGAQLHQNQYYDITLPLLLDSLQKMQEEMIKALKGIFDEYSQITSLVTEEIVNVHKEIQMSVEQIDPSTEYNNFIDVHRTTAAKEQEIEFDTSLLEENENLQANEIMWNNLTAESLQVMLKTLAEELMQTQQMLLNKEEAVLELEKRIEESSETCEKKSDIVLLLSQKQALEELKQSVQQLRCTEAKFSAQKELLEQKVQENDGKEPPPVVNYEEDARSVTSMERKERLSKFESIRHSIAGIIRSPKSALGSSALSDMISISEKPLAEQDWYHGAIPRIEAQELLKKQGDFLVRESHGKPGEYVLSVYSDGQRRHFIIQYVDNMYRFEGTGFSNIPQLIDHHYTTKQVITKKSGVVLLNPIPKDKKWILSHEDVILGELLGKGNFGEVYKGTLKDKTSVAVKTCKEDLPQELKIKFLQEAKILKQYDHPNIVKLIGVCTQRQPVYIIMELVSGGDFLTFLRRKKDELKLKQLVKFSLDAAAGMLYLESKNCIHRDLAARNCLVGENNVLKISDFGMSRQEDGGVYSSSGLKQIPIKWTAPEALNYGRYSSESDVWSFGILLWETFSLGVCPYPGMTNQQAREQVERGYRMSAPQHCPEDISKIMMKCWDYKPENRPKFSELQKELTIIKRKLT
Method: as §1

ZAK = biological target: T13, ZAK (Homo sapiens, UniProt Q9NYL2)
T13 construct: purchased ProQinase (Freiburg, Germany)
Method: as §1

DNAPK = biological target: T14, DNAPK (Homo sapiens, UniProt P78527)
T14 construct: purchased ProQinase (Freiburg, Germany)
Method: as §1

CAMK1D = biological target: T15, CAMK1D (Homo sapiens, UniProt Q8IU85)
T15 construct: purchased ProQinase (Freiburg, Germany)
Method: as §1

TSK2 = biological target: T16, TSK2 (Homo sapiens, UniProt Q96PF2)
T16 construct: purchased ProQinase (Freiburg, Germany)
T16 sequence (Q96PF2 1-358): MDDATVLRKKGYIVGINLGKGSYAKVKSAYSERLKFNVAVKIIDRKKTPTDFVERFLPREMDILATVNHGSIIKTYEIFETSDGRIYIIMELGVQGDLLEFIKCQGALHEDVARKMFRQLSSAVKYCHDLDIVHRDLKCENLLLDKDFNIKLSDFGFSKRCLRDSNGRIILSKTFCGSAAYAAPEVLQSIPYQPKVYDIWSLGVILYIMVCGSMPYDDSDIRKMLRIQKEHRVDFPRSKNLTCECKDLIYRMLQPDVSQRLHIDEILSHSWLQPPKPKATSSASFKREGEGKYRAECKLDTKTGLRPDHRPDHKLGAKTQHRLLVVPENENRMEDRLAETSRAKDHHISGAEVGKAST
Method: as §1

SMILES	Residual activity (DMPK; 1.0E-05 M)	Residual activity (DMPK; 1.0E-06 M)	Residual activity (S6Kbeta; 1.0E-05 M)	Residual activity (S6Kbeta; 1.0E-06 M)	Residual activity (CDK4/CycD2; 1.0E-05 M)	Residual activity (CDK4/CycD2; 1.0E-06 M)	Residual activity (PLK3; 1.0E-05 M)	Residual activity (PLK3; 1.0E-06 M)	Residual activity (SGK1; 1.0E-05 M)	Residual activity (SGK1; 1.0E-06 M)	Residual activity (MKK4; 1.0E-05 M)	Residual activity (MKK4; 1.0E-06 M)	Residual activity (CLK1; 1.0E-05 M)	Residual activity (CLK1; 1.0E-06 M)	Residual activity (FAK; 1.0E-05 M)	Residual activity (FAK; 1.0E-06 M)	Residual activity (AMPKalpha1; 1.0E-05 M)	Residual activity (AMPKalpha1; 1.0E-06 M)	Residual activity (CLK3; 1.0E-05 M)	Residual activity (CLK3; 1.0E-06 M)	further results
O=C(Nc1ccc(F)c(Nc2ccc3c(c2)CCCCC3=O)c1)c1cccc(F)c1 [Compound 109]	94 % of control	99 % of control	96 % of control	102 % of control	91 % of control	94 % of control	104 % of control	104 % of control	97 % of control	99 % of control	111 % of control	96 % of control	96 % of control	105 % of control	88 % of control	104 % of control	98 % of control	99 % of control	105 % of control	110 % of control	inhibition at 1 µM (p38alpha; 1 µM, read-out: inhibition of p38α): ≥ 50%; inhibition at 10 µM (p38alpha; 10 µM, read-out: inhibition of p38α): ≥ 50%; Residual activity (p38alpha; 1.0E-05 M): 4 % of control; Residual activity (p38alpha; 1.0E-06 M): 17 % of control; Residual activity (FER; 1.0E-05 M): 90 % of control; Residual activity (FER; 1.0E-06 M): 110 % of control; Residual activity (ZAK; 1.0E-05 M): 106 % of control; Residual activity (ZAK; 1.0E-06 M): 106 % of control; Residual activity (DNAPK; 1.0E-05 M): 106 % of control; Residual activity (DNAPK; 1.0E-06 M): 96 % of control; Residual activity (CAMK1D; 1.0E-05 M): 89 % of control; Residual activity (CAMK1D; 1.0E-06 M): 93 % of control; Residual activity (TSK2; 1.0E-05 M): 99 % of control; Residual activity (TSK2; 1.0E-06 M): 88 % of control
O=C(Cc1ccccc1)Nc1ccc(F)c(Nc2ccc3c(c2)CCCCC3=O)c1 [Compound 100]	100 % of control	101 % of control	85 % of control	96 % of control	86 % of control	94 % of control	114 % of control	115 % of control	85 % of control	108 % of control	110 % of control	94 % of control	79 % of control	99 % of control	88 % of control	116 % of control	101 % of control	112 % of control	114 % of control	130 % of control	Residual activity (p38alpha; 1.0E-05 M): 73 % of control; Residual activity (p38alpha; 1.0E-06 M): 78 % of control; Residual activity (FER; 1.0E-05 M): 94 % of control; Residual activity (FER; 1.0E-06 M): 101 % of control; Residual activity (ZAK; 1.0E-05 M): 102 % of control; Residual activity (ZAK; 1.0E-06 M): 109 % of control; Residual activity (DNAPK; 1.0E-05 M): 97 % of control; Residual activity (DNAPK; 1.0E-06 M): 95 % of control; Residual activity (CAMK1D; 1.0E-05 M): 88 % of control; Residual activity (CAMK1D; 1.0E-06 M): 85 % of control; Residual activity (TSK2; 1.0E-05 M): 93 % of control; Residual activity (TSK2; 1.0E-06 M): 97 % of control
